Measurements from patent US20070135521A1, “Agent for Preventing Metabolic Syndrome” (YAMAHA HATSUDOKI KABUSHIKI KAISHA, priority 2005, published 2007).

Experiments:
[1] = tested on: obese model mice fed with a high-fat diet; experiment: Effect of astaxanthin monoester on obese model mice fed with a high-fat diet; assay type: in vivo, male C57BL/6J strain mice
Method: Astaxanthin was administered to obese model mice fed with a high-fat diet, and the change in body weight, the amount of subcutaneous fat (in the inguinal region and the back), the amount of visceral fat (around the reproductive organs and around the kidney), the liver weight, the blood glucose level, and the insulin concentration in blood were examined in the following manner.
Four week old male C57BL/6J strain mice (SPF) purchased from CHARLES RIVER LABORATORIES JAPAN, INC. were used. The mice were preliminarily fed for 8 days and used for the test after they reached the age of 5 weeks. The mice were divided into three groups of 8 each, that is, a normal diet group, a high-fat diet group, and a high-fat diet+astaxanthin (AX) group, so that the average body weight was equal among the groups.
During the preliminary feeding period, the mice were given an ordinary powder diet (MF, Oriental Yeast Co., Ltd.), and during the test period of 16 weeks, the mice were given the ordinary powder diet or a high-fat diet having the composition shown in Table 2 below. As to drinking water, the mice were allowed to drink freely sterile distilled water from a water supply bottle.
The astaxanthin monoester prepared in Preparation Example 1 was dissolved in an olive oil (Wako Pure Chemical Industries, Ltd.) to prepare a solution containing astaxanthin monoester at a concentration of 60 mg/mL. This solution was administered to the high-fat diet+AX group and the olive oil to the other two groups in a volume of 0.05 mL/10 g body weight every day for 16 weeks from the start of the test (at the age of 5 weeks) to the age of 21 weeks, using a sonde for oral administration in the mice.
During the test period, the body weight was measured once a week using a scale. At the end of the test, the body weight was measured, and thereafter, the mice were fasted overnight and the blood glucose level was measured in the tail of each mouse using OneTouch Ultra™ (manufactured by Life Scan Inc., a blood glucose level measuring device). Next, blood was collected from the heart using a heparinized syringe with heparin Na. Immediately after the collection of blood, blood plasma was separated by centrifugation, and the obtained blood plasma was cryopreserved at −80° C. Then, the liver, the adipose tissue in the inguinal region, the adipose tissue around the reproductive organs, the adipose tissue around the kidney, and the adipose tissue in the back were collected and the weights thereof were measured. Thereafter, the insulin concentration in blood was measured with a commercially available kit (Mouse Insulin ELISA KIT (TMB) (AKRIN-011T): Shibayagi Co., Ltd.), using the blood plasma collected at the end of the test.
The different types of data obtained were expressed as average values±standard errors for each group. In order to test for statistically significant differences between the high-fat diet group and the high-fat diet+AX group or the normal diet group, a multiple comparison test (ANOVA) was performed using an analysis software (Stat View, Abacus Inc., USA), and a comparison between the groups was performed using Fisher's PLSD multiple comparison test. Differences were considered statistically significant when p<0.05.

[2] = tested on: Human umbilical vein endothelial cells (HUVECs); experiment: Measurement of 50% lethal concentration for HUVEC (alamarBlue); assay type: cell-based; details: 72 hours incubation, 250 μM = maximum concentration dissolved in DMSO
Method: Human umbilical vein endothelial cells (HUVECs) (ATCC CRL-1730) were obtained from American Type Culture Collection and precultivated in an Endothelial Cell Growth Medium (CELL APPLICATIONS, USA) containing 10% bovine fetal serum supplemented with 1% Antibiotic-Antimycotic (GIBCO BRL, USA) under a 5% CO2 atmosphere at 37° C.
A Matrigel matrix (BD Biosciences, USA) was melted and kept at 4° C. on ice, and then, 50 μL of the matrix were transferred to each well of a 96-well tissue culture plate. The plate was incubated at 37° C. for at least one hour to solidify the matrix solution.
On the other hand, the astaxanthin monoester obtained in Preparation Example 1 was dissolved in dimethylsulfoxide (DMSO), and then diluted with distilled water to prepare stock test solutions in which the astaxanthin monoester was contained in 40 (v/v)% DMSO at 25000, 2500, 250, 25, and 2.5 μM, respectively. […]
After the incubation, 20 μL of a 90% alamarBlue reagent were added to individual wells, and incubated for an additional 6 hours. Then, the fluorescence intensity of each well was measured at an excitation wavelength of 530 nm and an emission wavelength of 590 nm using a Spectrafluor Plus plate reader to count the number of living cells. […] The 50% lethal concentration was calculated as the concentration at which the number of living cells was 50% of the number of cells at the start of the experiment.

[3] = high-fat diet+AX vs high-fat diet, end of 16-week test, FIG. 2
[4] = high-fat diet+AX vs high-fat diet, end of 16-week test, FIG. 3

astaxanthin monoester
change over time in mean body weight ([1]; high-fat diet+AX group vs high-fat diet group, oral, every day for 16 weeks, 60 mg/mL in olive oil, 0.05 mL/10 g body weight, FIG. 1): the increase in body weight tended to be suppressed
mean weight of subcutaneous fat [1, 3]: the accumulation of fat was significantly suppressed
mean weight of visceral fat [1, 3]: the accumulation of fat was significantly suppressed
proportion of the liver weight to body weight [1, 4]: the proportion approached that in the case of the normal diet
proportions of the mean weights of the adipose tissues to mean body weight [1, 4]: the increase was significantly suppressed
blood glucose level ([1]; high-fat diet+AX vs high-fat diet, fasted overnight, end of 16-week test, FIG. 5): maintained at the same level as that of the normal diet group
insulin concentration in blood ([1]; high-fat diet+AX vs high-fat diet, plasma at end of 16-week test, FIG. 4): the insulin concentration was considerably suppressed
LC50 [2]: ≥ 250 µM
